# According to patent US20130225591A1, “IMIDOTHIAZOLE KINASE INHIBITORS” (priority 2009, published 2013):
# pIC50: −log10 of the molar value.
# Molecular target: T1, CDK5-p25 kinase (Homo sapiens, UniProt Q00535)
# T1 construct: purchased Invitrogen PV4677
# Assay: CDK5-p25 kinase enzymatic assay
# Type: biochemical
# Settings: 50 nM-99 nM; 5 uM ATP, 0.3 nM CDK5-p25; read-out: IC50 potency, CDK5-p25 kinase enzymatic assay, 50 nM-99 nM
# Procedure: CDK5-p25 kinase (Invitrogen PV4677) enzymatic activity was measured using electrophoretic separation and fluorescent detection to monitor phosphorylation of a fluorescently labeled histone H1-derived peptide substrate, FL29 (5-FAM-GGGPATPKKAKKL-CONH2, Caliper #760429)
# First, 0.25 uL of serially diluted compound in DMSO at 100× concentration was transferred into each well of a 384-well polystyrene assay plate. To this was added 15 uL of a 1.67× enzyme solution (500 pM enzyme, 1 mM DTT (Sigma D9779), 1× reconstitution buffer with protease inhibitor (Caliper #700329 proprietary formulation)), followed by centrifugation for 1 min at 1000 rpm, and incubation for 5-15 min at room temperature to allow binding of compound to enzyme. To initiate the reaction, 10 uL of substrate/ATP mix (245 mM Hepes pH 7.5, 0.003% Brij 35, 0.004% Tween, 12.75 uM ATP, 3.75 uM FL29 peptide) were added to each well, followed by centrifugation at 1000 rpm for 1 min. The reaction was then incubated at room temperature for 30 min. Final assay conditions were: 0.3 nM CDK5-p25, 1.5 uM peptide, 5 uM ATP, 0.6 mM DTT, 1% DMSO, 98 mM HEPES pH 7.5.
# After incubation, reactions were quenched by the addition of 45 uL Caliper termination solution (Caliper proprietary formula), followed by centrifugation at 1000 rpm for 1 min. Extent of reaction (percentage conversion of substrate to phosphorylated product) was then measured using the Caliper EZ II reader. Dose-response curves were created by plotting the inhibition of enzyme activity (normalized relative to vehicle treated and no ATP control reactions) as a function of the log of compound concentration. The curve was analyzed using a four parameter logistical fit to calculate IC50 values.
# T1 sequence (Q00535 whole entry): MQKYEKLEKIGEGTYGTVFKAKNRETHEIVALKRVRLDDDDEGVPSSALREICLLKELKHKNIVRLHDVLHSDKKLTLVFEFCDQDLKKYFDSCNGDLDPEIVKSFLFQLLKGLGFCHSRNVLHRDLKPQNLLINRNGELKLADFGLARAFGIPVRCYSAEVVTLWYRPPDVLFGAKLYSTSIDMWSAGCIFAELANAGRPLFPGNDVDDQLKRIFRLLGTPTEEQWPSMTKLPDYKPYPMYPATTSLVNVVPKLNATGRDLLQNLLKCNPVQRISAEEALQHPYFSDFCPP
# T1 sequence (Q15078 99-307 partner limits assumed): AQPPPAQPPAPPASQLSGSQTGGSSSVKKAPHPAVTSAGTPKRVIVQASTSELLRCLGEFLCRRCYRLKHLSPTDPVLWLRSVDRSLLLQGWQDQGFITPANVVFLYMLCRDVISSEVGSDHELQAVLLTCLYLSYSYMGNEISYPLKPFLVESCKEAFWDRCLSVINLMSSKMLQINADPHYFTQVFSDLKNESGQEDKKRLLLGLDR
row,pIC50,SMILES
1,7.00 to 7.30,"O=C(Cc1ccc(CO)cc1)Nc1ncn2c(C(F)(F)F)csc12 [Example 71, 2-[4-(hydroxymethyl)phenyl]-N-[3-(trifluoromethyl)imidazo[5,1-b][1,3]thiazol-7-yl]acetamide]"
2,7.00 to 7.30,"O=C(Cc1ccc(C(=O)N2CCCC2)cc1)Nc1ncn2c(C(F)(F)F)csc12 [Example 74, 2-[4-(pyrrolidin-1-ylcarbonyl)phenyl]-N-[3-(trifluoromethyl)imidazo[5,1-b][1,3]thiazol-7-yl]acetamide]"

# Same assay, conditions: 500 nM-3 μM; 5 uM ATP, 0.3 nM CDK5-p25; read-out: IC50 potency, CDK5-p25 kinase enzymatic assay, 500 nM-3 μM
row,pIC50,SMILES
1,5.52 to 6.30,"Cc1csc2c(NC(=O)Cc3ccc4ccccc4c3)ncn12 [Example 65, N-(3-methylimidazo [5,1-b][1,3]thiazol-7-yl)-2-(2-naphthyl) acetamide]"
2,5.52 to 6.30,"O=C(Nc1ncn2c(C(F)(F)F)csc12)C(CO)c1ccc2ccccc2c1 (centres unmarked) [Example 67, 3-hydroxy-2-(2-naphthyl)-N-[3-(trifluoromethyl)imidazo[5,1-b][1,3]thiazol-7-yl]propanamide]"
3,5.52 to 6.30,"O=C(Cc1ccc2ccccc2c1)Nc1ncn2ccsc12 [Example 82, N-imidazo[5,1-b][1,3]thiazol-7-yl-2-(2-naphthyl)acetamide]"

# Same assay, conditions: 5 uM ATP, 0.3 nM CDK5-p25; read-out: IC50 potency, CDK5-p25 kinase enzymatic assay, 100 nM-499 nM
row,pIC50,SMILES
1,6.30 to 7.00,"O=C(CN1Cc2ccccc2C1)Nc1ncn2c(C(F)(F)F)csc12 [Example 68, 2-(1,3-dihydro-2H-isoindol-2-yl)-N-[3-(trifluoromethyl)imidazo[5,1-b][1,3]thiazol-7-yl]acetamide]"
2,6.30 to 7.00,"O=C(Cc1ccnnc1)Nc1ncn2c(C(F)(F)F)csc12 [Example 72, 2-pyridazin-4-yl-N-[3-(trifluoromethyl)imidazo[5,1-b][1,3]thiazol-7-yl]acetamide]"
3,6.30 to 7.00,"NCc1cccc(CC(=O)Nc2ncn3c(C(F)(F)F)csc23)c1 [Example 75, 2-[3-(aminomethyl)phenyl]-N-[3-(trifluoromethyl)imidazo[5,1-b][1,3]thiazol-7-yl]acetamide]"

# Same assay, conditions: '<50 nM'; 5 uM ATP, 0.3 nM CDK5-p25; read-out: IC50 potency, CDK5-p25 kinase enzymatic assay, <50 nM
row,SMILES,pIC50
1,"O=C(Cc1cccc(-c2ccncc2)c1)Nc1ncn2c(C(F)(F)F)csc12 [Example 64, 2-(3-pyridin-4-ylphenyl)-N-[3-(trifluoromethyl)imidazo[5,1-b][1,3]thiazol-7-yl]acetamide]",> 7.30
2,"O=C(Cc1cccc2ccccc12)Nc1ncn2c(C(F)(F)F)csc12 [Example 66, 2-(1-naphthyl)-N-[3-(trifluoromethyl)imidazo[5,1-b][1,3]thiazol-7-yl]acetamide]",> 7.30
3,"Cc1nc2cc(CC(=O)Nc3ncn4c(C(F)(F)F)csc34)ccc2o1 [Example 69, 2-(2-methyl-1,3-benzoxazol-5-yl)-N-[3-(trifluoromethyl)imidazo[5,1-b][1,3]thiazol-7-yl]acetamide]",> 7.30
4,"O=C(Cc1ccc(-c2nnco2)cc1)Nc1ncn2c(C(F)(F)F)csc12 [Example 70, 2-[4-(1,3,4-oxadiazol-2-yl)phenyl]-N-[3-(trifluoromethyl)imidazo[5,1-b][1,3]thiazol-7-yl]acetamide]",> 7.30
5,"O=C(Cc1ccc2[nH]cnc2c1)Nc1ncn2c(C(F)(F)F)csc12 [Example 73, 2-(1H-benzimidazol-5-yl)-N-[3-(trifluoromethyl)imidazo[5,1-b][1,3]thiazol-7-yl]acetamide]",> 7.30

# More lines, now with the values ahead:
row,pIC50,SMILES
1,> 7.30,"O=C(Cc1ccc(NC(=O)c2ccccc2)cc1)Nc1ncn2c(C(F)(F)F)csc12 [Example 79, N-[4-(2-oxo-2-{[3-(trifluoromethyl)imidazo[5,1-b][1,3]thiazol-7-yl)amino}ethyl)phenyl] benzamide]"
2,> 7.30,"O=C(Cc1cccc(-c2nn[nH]n2)c1)Nc1ncn2c(C(F)(F)F)csc12 [Example 80, 2-[3-(2H-tetrazol-5-yl)phenyl]-N-[3-(trifluoromethyl)imidazo[5,1-b][1,3]thiazol-7-yl]acetamide]"
3,> 7.30,"O=C(Cc1ccc(-c2nn[nH]n2)cc1)Nc1ncn2c(C(F)(F)F)csc12 [Example 81, 2-[4-(2H-tetrazol-5-yl)phenyl]-N-[3-(trifluoromethyl)imidazo[5,1-b][1,3]thiazol-7-yl]acetamide]"
4,> 7.30,"O=C(Cc1ccc2ccccc2c1)Nc1ncn2ccsc12 [Example 82, N-imidazo[5,1-b][1,3]thiazol-7-yl-2-(2-naphthyl)acetamide]"
